Measurements taken from patent US10548911B2, “Small molecule anti-scarring agents” (UNIVERSITY OF ROCHESTER, priority 2014, dated 2020).
Entries after “also recorded” stand apart in the source; their conditions may differ.

Experiments:
phospho-p38 = experiment: Western blot of phospho-p38 in TGFβ-treated human orbital fibroblasts; format: cell-based; settings: for reduction of phospho-p38 levels: 250 nM
Description: Therefore, activity of another signaling molecule that is involved in myofibroblast formation, namely the mitogen-activated protein kinase (MAPK), p38, was measured to assess its potential role in the observed results. P38 MAPKs are a class of protein kinases that respond to TGFβ, ultraviolet radiation and other stimuli. Phosphorylation and activation of p38 can lead to numerous downstream signaling pathways, including phosphorylation of Smad proteins.
To further test if salinomycin targets the p38 pathway to block myofibroblast formation, a plasmid encoding a mutant MKK6 (pcDNA3-flag MKK6(glu)) protein was used. MKK6 phosphorylates and thus activates p38 in response to extracellular signals such as TGFβ or other environmental stresses. The MKK6(glu) protein, which harbors glutamate mutations at amino acid residues serine 207 and threonine 211, is constitutively active and thus phosphorylates p38 irrespective of signal (Raingeaud et al., “MKK3- and MKK6-regulated gene expression is mediated by the p38 mitogen-activated protein kinase signal transduction pathway,” Mol. Cell. Biol. 16:1247-1255 (1996), which is hereby incorporated by reference in its entirety). Thus, if salinomycin is blocking the p38 signaling pathway, MKK6(glu) should overcome the effect of salinomycin. MKK6(glu) was first tested using the SBE4-TK-luc reporter plasmid. The luciferase reporter plasmid was introduced into human fibroblasts along with the MKK6(glu) plasmid or a control plasmid (pcDNA3-GFP). Cells were then treated with vehicle, TGFβ or TGFβ plus 250 nM salinomycin. After 24 hours, luciferase activity was measured (FIG. 6A). […] MKK6(glu) was further tested to assess whether it could attenuate the ability of salinomycin to inhibit p38 phosphorylation. Control or MKK6(glu) plasmids were introduced into human fibroblasts by electroporation and then cells were treated with TGFβ for 24 hours. Following treatment, cells were analyzed for flag-MKK6(glu) expression and phospho-p38 by Western blot (FIG. 6B). […] However, MKK6(glu) expression leads to a large induction of phospho-p38, regardless of salinomycin treatment. As a third test, control or MKK6(glu) plasmids were introduced into human fibroblasts by electroporation. After electroporation, cells were induced to form myofibroblasts by TGFβ treatment for 72 hours. Samples were analyzed for expression of flag-MKK6(glu), αSMA, calponin and β-tubulin by Western blot (FIG. 6C).

capsular fibroblasts = experiment: Breast implant capsular fibroblasts treated with TGF-β and salinomycin (Western blot, slot blot, morphology); format: cell-based, human; settings: for Thy1 expression: 250 nM, untreated and TGF-β (2.5 ng/mL) treated cultures
Description: FIG. 9 is a set of images of capsular fibroblasts explanted from primary tissue samples cultured in vitro. Treatment consisted of 48 hours growth in serum-starved media (0.1% fetal bovine serum), followed by administration of vehicle, 2.5 ng/mL transforming growth factor-beta (TGF-β), 250 nM salinomycin (SNC), or TGF-β plus SNC for 72 hours. […] Original magnification 200×.
After treatment, cells were lysed for protein extraction and analysis via Western blot. Data are presented in graph form (FIG. 10A) and as images of Western blots (FIG. 10B). […] All protein expression is relative to β-tubulin levels. At time of cell harvest, media supernatant was also taken and equal volumes run on a slot blot to compare presence of extracellular soluble collagen. In like manner, collagen I increased with TGF- and was reduced with co-administration of SNC. **=p<0.01; ***=p<0.001; ****=p<0.0001.
Peri-implant tissue samples from irradiated (n=4) and non-irradiated (n=9) breast capsules were analyzed for expression of Thy1 mRNA by qRT-PCR (FIG. 8). Additionally, capsular fibroblasts were grown in vitro and treated with the pro-fibrotic cytokine transforming growth factor-β (TGFβ) and the polyether ionophore salinomycin, and analyzed for expression of Thy1, αSMA, fibronectin, and collagen by Western blot (FIG. 9 and FIGS. 10A-B). To investigate the fundamental role of Thy1 in capsular fibroblast/myofibroblast formation, Thy1 expression was depleted using Thy1 siRNA (delivered by lentiviral transduction) (FIGS. 11A-B).

[1] = tested on: primary human lung fibroblasts; experiment: TGFβ-induced myofibroblast formation, αSMA Western blot and cell images, primary human lung fibroblasts; format: cell-based; settings: HCPT 50 nM or 500 nM, TGFβ, listed as SNC
Description: Human lung fibroblasts were treated with various concentrations of 10-hydroxycamptothecin (HCPT) (50 nM or 500 nM) and induced to form scar-forming myofibroblasts by treating with TGFβ.

human fibroblasts = experiment: BrdU incorporation assay (cell proliferation); format: cell-based; settings: for basal fibroblast proliferation (BrdU incorporation): 250 nM, without TGFβ
Description: Human fibroblasts were seeded on a 96-well plate at a density of 1×10^5 cells/well. Cells were treated in triplicate. Cell proliferation was determined using the bromodeoxyuridine (BrdU) assay following manufacturer's instructions. Briefly, cells were treated with a BrdU label at a 1:2000 dilution for 24 h after the initial 72 h treatment with TGFβ+/−drugs. BrdU incorporation was measured using the BrdU Cell Proliferation Assay kit (Calbiochem, San Diego, Calif.) at 450-540 nm using a Varioskan microplate reader.
While salinomycin and other polyether ionophores blocked myofibroblast formation, it was next assessed whether these effects were a result of toxicity and/or due to a block of cell proliferation. Though the treatment doses are relatively low (efficacy in 100-250 nM range), a loss of cell viability could still be a possibility. To test this, human fibroblasts were treated with vehicle (DMSO), 50-250 nM salinomycin alone, TGFβ or TGFβ plus 250 nM salinomycin. As a positive control, fibroblasts were treated with the cytotoxic drug, puromycin. Treated cells were cultured in the presence of alamar blue reagent, which measures mitochondrial oxidation-reduction (REDOX) potential and serves as a quantitative viability sensor. After 72 hours of culture, alamar blue fluorescence was measured to assay cell viability (FIG. 4A). […] It was also tested whether salinomycin affects basal fibroblast proliferation. To address this, cells were treated with vehicle or 250 nm of either salinomycin or narasin for 24 hours in the presence of bromodeoxyuridine (BrdU) to measure cell proliferation ([…], first three bars). […] BrdU was also added to cells treated with TGFβ in the presence or absence of 250 nM salinomycin or narasin (FIG. 4B, last three bars). As expected, TGFβ induced human fibroblast proliferation. Remarkably, both salinomycin and narasin were able to beneficially block TGFβ induced proliferation by 4 to 5 fold, without affecting basal proliferation levels.

[2] = 250 nM plus TGF-β 2.5 ng/mL, 72 hours

## CC[C@@H](C(=O)[C@@H](C)[C@@H](O)[C@H](C)[C@@H]1O[C@@H]([C@@H](CC)C(=O)O)CC[C@@H]1C)[C@H]1O[C@]2(C=C[C@@H](O)[C@]3(CC[C@@](C)([C@H]4CC[C@](O)(CC)[C@H](C)O4)O3)O2)[C@H](C)C[C@@H]1C [salinomycin]
phospho-p38; 5 hours
  reduction of phospho-p38 levels: more than 2 fold
phospho-p38; 24 hours
  reduction of phospho-p38 levels: 10 fold
phospho-p38; 5 hours TGFβ treatment
  phospho-p38 levels: completely blocked
phospho-p38; 24 hours TGFβ treatment
  inhibition of phospho-p38: 80%
phospho-p38; control plasmid, TGFβ 24 hours
  phosphorylation of p38: blocks phosphorylation of p38
Capsular fibroblasts; [2]
  Alpha-SMA expression: below basal levels
  cell morphology (myofibroblastic differentiation): appears to reduce the effect of TGF-β
Capsular fibroblasts; 72 hours
  Thy1 expression: dramatically reduced
Capsular fibroblasts; 72 hours, listed as SNC
  Thy1 expression: significantly reduced
Capsular fibroblasts; explanted capsular fibroblasts, TGFβ plus salinomycin
  TGFβ-increased αSMA and collagen I: nearly completely inhibited; also recorded: reduced
[1]
  formation of myofibroblasts (cell images): not in samples treated with HCPT or SNC; also recorded: not in samples with HCPT or salinomycin (SNC)
Human fibroblasts; 250 nM plus TGFβ
  TGFβ induced proliferation (BrdU incorporation): significantly blocked TGFβ induced proliferation
Human fibroblasts
  basal fibroblast proliferation (BrdU incorporation): Neither salinomycin nor narasin blocked basal fibroblast proliferation
Human fibroblasts; listed as Salinomycin
  basal fibroblast proliferation (BrdU incorporation): did not affect basal fibroblast proliferation
